Our source for the EC50 and Emax values is US20240368120A1 (Terns Pharmaceuticals, Inc., priority 2023, published 2024).

Some results are limits rather than exact numbers.

For the experiment, the target named is T1, human GLP-1R receptor (Homo sapiens, UniProt P43220).
T1 construct: expressed in transfected cells
In words: GLP-1R low expression cell assay (cAMP TR-FRET, CHO-K1_hGLP-1Rlow_clone10 cells). Format: cell-based. Particulars: for EC50: cAMP TR-FRET, 30 min at 25° C.; for Emax: maximum activation relative to control GLP-1 peptide agonist. An outline of the steps:
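CHO-K1 cells stably expressing low surface human GLP-1R (clone10), 1,000 cells/well, exposed to 10-point 3-fold compound dilutions for 30 min at 25 °C. cAMP measured by TR-FRET (Eu-cAMP tracer/ULight-anti-cAMP, 15 min). EC50 from Hill fit of duplicate percent activation relative to a parallel GLP-1 control agonist.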
On the technique in general: TR-FRET usually uses a lanthanide donor and a delayed reading to cut background.

T1 sequence (P43220 24-463): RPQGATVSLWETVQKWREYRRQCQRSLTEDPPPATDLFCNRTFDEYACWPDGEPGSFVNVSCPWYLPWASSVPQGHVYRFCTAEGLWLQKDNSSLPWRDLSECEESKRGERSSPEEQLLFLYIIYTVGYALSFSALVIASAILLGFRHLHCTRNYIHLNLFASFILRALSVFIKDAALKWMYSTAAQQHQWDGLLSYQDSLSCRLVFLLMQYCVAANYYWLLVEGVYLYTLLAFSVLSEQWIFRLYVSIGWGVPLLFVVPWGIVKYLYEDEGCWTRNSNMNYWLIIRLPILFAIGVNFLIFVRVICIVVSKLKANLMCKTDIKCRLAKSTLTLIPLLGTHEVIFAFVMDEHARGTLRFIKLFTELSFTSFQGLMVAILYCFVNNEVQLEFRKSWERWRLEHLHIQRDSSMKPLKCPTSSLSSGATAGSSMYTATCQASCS

With `CCOc1cc(-c2nnn[nH]2)cc2c1nc(CN1CCC(c3cccc(OCc4ccc(C#N)cc4F)n3)CC1)n2C` [Compound 273, 4-(((6-(1-((4-ethoxy-1-methyl-6-(1H-tetrazol-5-yl)-1H-benzo[d]imidazol-2-yl)methyl)piperidin-4-yl)pyridin-2-yl)oxy)methyl)-3-fluorobenzonitrile], the EC50 (as a rule, the concentration that produces a half-maximal response) was less than 10 nM and the Emax (in general, the size of the effect at its maximum, as opposed to the concentration needed) was greater than 85%.

In the case of `COc1cc(C(=O)O)cc2c1nc(CN1CCC(c3cccc4c3OC[C@H](c3ccc(C#N)cc3F)O4)CC1)n2C` [Compound 274, (S)-2-((4-(2-(4-Cyano-2-fluorophenyl)-2,3-dihydrobenzo[b][1,4]dioxin-5-yl)piperidin-1-yl)methyl)-4-methoxy-1-methyl-1H-benzo[d]imidazole-6-carboxylic acid], the EC50 was greater than 1000 nM and the Emax is less than 25%.

`Cn1c(CN2CCC(c3cccc(OCc4ccc(Cl)cc4F)n3)CC2)nc2c3c(c(C(=O)O)cc21)OCO3` [Compound 275, 7-((4-(6-((4-Chloro-2-fluorobenzyl)oxy)pyridin-2-yl)piperidin-1-yl)methyl)-6-methyl-6H-[1,3]dioxolo[4′,5′:3,4]benzo[1,2-d]imidazole-4-carboxylic acid] displayed an EC50 of 10 to 100 nM and an Emax greater than 85%.

`CCOc1cc(C(=O)O)cc2c1nc(CN1CCC(c3cccc4c3OC[C@@H](c3ccc(C#N)cc3F)O4)CC1)n2C` [Compound 276, (R)-2-((4-(2-(4-Cyano-2-fluorophenyl)-2,3-dihydrobenzo[b][1,4]dioxin-5-yl)piperidin-1-yl)methyl)-4-ethoxy-1-methyl-1H-benzo[d]imidazole-6-carboxylic acid] returned an EC50 of 10 to 100 nM and an Emax greater than 85%.

`CCOc1cc(C(=O)O)cc2c1nc(CN1CCC(c3cccc4c3OC[C@H](c3ccc(C#N)cc3F)O4)CC1)n2C` [Compound 277, (S)-2-((4-(2-(4-Cyano-2-fluorophenyl)-2,3-dihydrobenzo[b][1,4]dioxin-5-yl)piperidin-1-yl)methyl)-4-ethoxy-1-methyl-1H-benzo[d]imidazole-6-carboxylic acid] registered an EC50 greater than 1000 nM and a maximal response (Emax) of 50 to 85%.

In turn, `COc1cc(C(=O)O)cc2c1nc(CN1CCC(c3cccc4c3OC[C@@H](c3ccc(C#N)cc3F)O4)CC1)n2C` [Compound 278, (R)-2-((4-(2-(4-Cyano-2-fluorophenyl)-2,3-dihydrobenzo[b][1,4]dioxin-5-yl)piperidin-1-yl)methyl)-4-methoxy-1-methyl-1H-benzo[d]imidazole-6-carboxylic acid] showed an EC50 of 100 to 1000 nM and an Emax greater than 85%.

For `COc1cc(-c2nnn[nH]2)cc2c1nc(CN1CCC(c3cccc(OCc4ccc(Cl)cc4F)n3)CC1)n2C[C@@H]1CCO1` [Compound 279, (S)-2-((4-(6-((4-Chloro-2-fluorobenzyl)oxy)pyridin-2-yl)piperidin-1-yl)methyl)-4-methoxy-1-(oxetan-2-ylmethyl)-6-(1H-tetrazol-5-yl)-1H-benzo[d]imidazole], the EC50 is less than 10 nM and the Emax was in the range of 50 to 85%.

In the case of `CNC(=O)c1cc(OC)c2nc(CN3CCC(c4cccc(OCc5ccc(Cl)cc5F)n4)CC3)n(C)c2c1` [Compound 280, 2-((4-(6-((4-chloro-2-fluorobenzyl)oxy)pyridin-2-yl)piperidin-1-yl)methyl)-4-methoxy-N, 1-dimethyl-1H-benzo[d]imidazole-6-carboxamide], the EC50 was greater than 1000 nM and the Emax lay within 50 to 85%.

For the compound `Cn1c(CN2CCC(c3cccc(OCc4ccc(Cl)cc4F)c3)CC2)nc2c(OC(F)F)cc(N3CC(=O)NS3(=O)=O)cc21` [Compound 281, 5-(2-((4-(3-((4-Chloro-2-fluorobenzyl)oxy)phenyl)piperidin-1-yl)methyl)-4-(difluoromethoxy)-1-methyl-1H-benzo[d]imidazol-6-yl)-1,2,5-thiadiazolidin-3-one 1,1-dioxide], the EC50 is greater than 1000 nM and the Emax fell in the range of 50 to 85%.

The compound `COc1cc(C(=O)O)cc2c1nc(Cc1cc(F)c(-c3cccc(OCc4ccc(Cl)cc4F)n3)cc1F)n2C` [Compound 282, 2-(4-(6-((4-Chloro-2-fluorobenzyl)oxy)pyridin-2-yl)-2,5-difluorobenzyl)-4-methoxy-1-methyl-1H-benzo[d]imidazole-6-carboxylic acid] returned an EC50 of less than 10 nM and an Emax greater than 85%.

`COc1cc(C(=O)O)cc2c1nc(CN1CCC(c3cccc(OCc4ccc(C#N)c5c4OCC5)n3)CC1)n2C` [Compound 283, 2-((4-(6-((4-Cyano-2,3-dihydrobenzofuran-7-yl)methoxy)pyridin-2-yl)piperidin-1-yl)methyl)-4-methoxy-1-methyl-1H-benzo[d]imidazole-6-carboxylic acid] returned an EC50 of less than 10 nM and an Emax greater than 85%.

In turn, `[2H]C([2H])(C)Oc1cc(C(=O)O)cc2c1nc(CN1CCC(c3cccc(OCc4ccc(Cl)cc4F)c3)CC1)n2C` [Compound 284, 2-((4-(3-((4-Chloro-2-fluorobenzyl)oxy)phenyl)piperidin-1-yl)methyl)-4-(ethoxy-1,1-d2)-1-methyl-1H-benzo[d]imidazole-6-carboxylic acid] had an EC50 of 10 to 100 nM and an Emax greater than 85%.

`[2H]C([2H])(C)Oc1cc(C(=O)O)cc2c1nc(CN1CCC(c3cccc(OC([2H])([2H])c4ccc(C#N)cc4F)n3)CC1)n2C` [Compound 285, 2-((4-(6-((4-Cyano-2-fluorophenyl)methoxy-d2)pyridin-2-yl)piperidin-1-yl)methyl)-4-(ethoxy-1,1-d2)-1-methyl-1H-benzo[d]imidazole-6-carboxylic acid] gave an EC50 of less than 10 nM and an Emax greater than 85%.

Compound `[2H]C([2H])(C)Oc1cc(C(=O)O)cc2c1nc(CN1CCC(c3cccc(OC([2H])([2H])c4ccc(Cl)cc4F)n3)CC1)n2C` [Compound 286, 2-((4-(6-((4-Chloro-2-fluorophenyl)methoxy-d2)pyridin-2-yl)piperidin-1-yl)methyl)-4-(ethoxy-1,1-d2)-1-methyl-1H-benzo[d]imidazole-6-carboxylic acid] yielded an EC50 of less than 10 nM and an Emax greater than 85%.

`CCOc1cc(C(=O)O)cc2c1nc(CN1CCC(c3cccc4c3O[C@@H](c3ccc(C#N)cc3F)CO4)CC1)n2C` [Compound 287, (S)-2-((4-(3-(4-Cyano-2-fluorophenyl)-2,3-dihydrobenzo[b][1,4]dioxin-5-yl)piperidin-1-yl)methyl)-4-ethoxy-1-methyl-1H-benzo[d]imidazole-6-carboxylic acid] yielded an EC50 greater than 1000 nM and an Emax greater than 85%.

`CCOc1cc(C(=O)O)cc2c1nc(CN1CCC(c3cccc4c3O[C@H](c3ccc(C#N)cc3F)CO4)CC1)n2C` [Compound 288, (R)-2-((4-(3-(4-Cyano-2-fluorophenyl)-2,3-dihydrobenzo[b][1,4]dioxin-5-yl)piperidin-1-yl)methyl)-4-ethoxy-1-methyl-1H-benzo[d]imidazole-6-carboxylic acid] yielded an EC50 of 10 to 100 nM and an Emax greater than 85%.

On to `Cn1c(CN2CCC(c3cccc(OCc4ccc(C#N)cc4F)n3)CC2)nc2c3c(c(C(=O)O)cc21)OCCO3` [Compound 289, 2-((4-(6-((4-Cyano-2-fluorobenzyl)oxy)pyridin-2-yl)piperidin-1-yl)methyl)-3-methyl-7,8-dihydro-3H-[1,4]dioxino[2′,3′:3,4]benzo[1,2-d]imidazole-5-carboxylic acid], for which the EC50 was 100 to 1000 nM and the Emax is greater than 85%.

In turn, `CCOc1cc(C(=O)O)cc2c1nc(CN1CCC(Oc3cccc(COc4ccc(C#N)cc4F)n3)CC1)n2C` [Compound 290, 2-((4-((6-((4-Cyano-2-fluorophenoxy)methyl)pyridin-2-yl)oxy)piperidin-1-yl)methyl)-4-ethoxy-1-methyl-1H-benzo[d]imidazole-6-carboxylic acid] had an EC50 of less than 10 nM and an Emax greater than 85%.

As for `Cn1c(CN2CCC(c3cccc(OCc4ccc(C#N)cc4F)n3)CC2)nc2c(OCCO)cc(C(=O)O)cc21` [Compound 291, 2-((4-(6-((4-Cyano-2-fluorobenzyl)oxy)pyridin-2-yl)piperidin-1-yl)methyl)-4-(2-hydroxyethoxy)-1-methyl-1H-benzo[d]imidazole-6-carboxylic acid], the EC50 is less than 10 nM and the Emax was greater than 85%.

Regarding `COc1cc(C(=O)O)cc2c1nc(Cc1ccc(-c3cccc(OCc4ccc(Cl)cc4F)n3)cc1F)n2C` [Compound 292, 2-(4-(6-((4-Chloro-2-fluorobenzyl)oxy)pyridin-2-yl)-2-fluorobenzyl)-4-methoxy-1-methyl-1H-benzo[d]imidazole-6-carboxylic acid], the EC50 was less than 10 nM and the Emax was greater than 85%.

Compound `CCOc1cc(C(=O)O)cc2c1nc(Cc1ccc(-c3cccc(OCc4ccc(C#N)cc4F)n3)cc1F)n2C` [Compound 293, 2-(4-(6-((4-Cyano-2-fluorobenzyl)oxy)pyridin-2-yl)-2-fluorobenzyl)-4-ethoxy-1-methyl-1H-benzo[d]imidazole-6-carboxylic acid] showed an EC50 of less than 10 nM and an Emax greater than 85%.

Compound `COc1cc(C(=O)O)cc2c1nc(CN1CCC(c3cccc4c3O[C@H](c3ccc(C#N)cc3F)CO4)CC1)n2C` [Compound 310, (R)-2-((4-(3-(4-cyano-2-fluorophenyl)-2,3-dihydrobenzo[b][1,4]dioxin-5-yl)piperidin-1-yl)methyl)-4-methoxy-1-methyl-1H-benzo[d]imidazole-6-carboxylic acid] yielded a concentration for a half-maximal effect (EC50) of 10 to 100 nM and an Emax greater than 85%.

`Cn1c(CN2CCC(c3cccc(OCc4ccc(Cl)cc4F)n3)CC2)nc2c3c(c(C(=O)O)cc21)OCCO3` [Compound 311, 2-((4-(6-((4-chloro-2-fluorobenzyl)oxy)pyridin-2-yl)piperidin-1-yl)methyl)-3-methyl-7,8-dihydro-3H-[1,4]dioxino[2′,3′:3,4]benzo[1,2-d]imidazole-5-carboxylic acid] registered an EC50 of 10 to 100 nM and a maximal response (Emax) greater than 85%.
